Where “and” joins values, the source holds several entries; their conditions need not be identical. Equal values may be shown once. Read-outs that look alike come from different tables or passages of the source.
How the values were obtained:
[1] = Plasma concentrations and TK parameters, 72-hour continuous intravenous infusion; format: in vivo, Sprague-Dawley rats; details: for concentration at 48 h / concentration at 72 h / concentration at 78 h / concentration at 84 h / concentration at 96 h / concentration at 24 h: Sprague-Dawley, rat, plasma, iv
Description: The safety and pharmacokinetics of PPTN (KB-1801) in rats receiving continuous intravenous injections of SBECD-containing solutions were analyzed. Three cohorts of six male and six female rats each were given continuous intravenous infusion of PPTN (KB-1801) at 10 mg/kg/day, 30 mg/kg/day or 100 mg/kg/day in a dosing solution containing PPTN at 0.25 mg/mL, 0.75 mg/mL or 2.5 mg/mL and SBECD at about 3.8%. Dosing volume was 40 mIkg/day. [table]

[2] = Loss of PPTN due to adherence to surfaces of vessels; format: physicochemical; details: 200 ng/ml PPTN, no solubilizing agent; Control 48 h, glass scintillation vial

## O=C(O)c1cc(-c2ccc(C3CCNCC3)cc2)c2ccc(-c3ccc(C(F)(F)F)cc3)cc2c1 [KB-1801, 4-[4-(piperidin-4-yl)phenyl]-7-[4-(trifluoromethyl)phenyl]-2-naphthoic acid]
[1]; female, 100 mg/kg/day, female Sprague-Dawley rats, 72-hour intravenous infusion at 100 mg/kg/day, time 48 h, read-out: Plasma concentration, individual animal
  concentration at 48 h: 6070 ng/mL
[1]; female, 100 mg/kg/day, female Sprague-Dawley rats, 72-hour intravenous infusion at 100 mg/kg/day, time 72 h, read-out: Plasma concentration, Mean
  concentration at 72 h: 6840 ng/mL
[1]; female, 100 mg/kg/day, female Sprague-Dawley rats, 72-hour intravenous infusion at 100 mg/kg/day, time 72 h, read-out: Plasma concentration, individual animal
  concentration at 72 h: 7110 ng/mL
[1]; female, 100 mg/kg/day, female Sprague-Dawley rats, 72-hour intravenous infusion at 100 mg/kg/day, time 78 h, read-out: Plasma concentration, Mean
  concentration at 78 h: 1820 ng/mL
[1]; female, 100 mg/kg/day, female Sprague-Dawley rats, 72-hour intravenous infusion at 100 mg/kg/day, time 78 h, read-out: Plasma concentration, individual animal
  concentration at 78 h: 1900 ng/mL
[1]; female, 100 mg/kg/day, female Sprague-Dawley rats, 72-hour intravenous infusion at 100 mg/kg/day, time 84 h, read-out: Plasma concentration, Mean
  concentration at 84 h: 987 ng/mL
[1]; female, 100 mg/kg/day, female Sprague-Dawley rats, 72-hour intravenous infusion at 100 mg/kg/day, time 84 h, read-out: Plasma concentration, individual animal
  concentration at 84 h: 841 ng/mL
[1]; female, 100 mg/kg/day, female Sprague-Dawley rats, 72-hour intravenous infusion at 100 mg/kg/day, time 96 h, read-out: Plasma concentration, Mean
  concentration at 96 h: 281 ng/mL
[1]; female, 100 mg/kg/day, female Sprague-Dawley rats, 72-hour intravenous infusion at 100 mg/kg/day, time 96 h, read-out: Plasma concentration, individual animal
  concentration at 96 h: 288 ng/mL
[1]; male Sprague-Dawley rats, 72-hour intravenous infusion at 10 mg/kg/day, time 24 h, 10 mg/kg/day
  Plasma concentration, individual animal: 547.8 ng/mL and 952.8 ng/mL
[1]; male Sprague-Dawley rats, 72-hour intravenous infusion at 10 mg/kg/day, time 48 h, 10 mg/kg/day
  Plasma concentration, individual animal: 539.5 ng/mL and 752.7 ng/mL
[1]; male Sprague-Dawley rats, 72-hour intravenous infusion at 10 mg/kg/day, time 72 h, 10 mg/kg/day
  Plasma concentration, individual animal: 617.8 ng/mL and 545.9 ng/mL
[1]; male Sprague-Dawley rats, 72-hour intravenous infusion at 10 mg/kg/day, time 78 h, 10 mg/kg/day
  Plasma concentration, individual animal: 205.5 ng/mL and 170.5 ng/mL
[1]; male Sprague-Dawley rats, 72-hour intravenous infusion at 10 mg/kg/day, time 84 h, 10 mg/kg/day
  Plasma concentration, individual animal: 82.6 ng/mL and 128.1 ng/mL
[1]; male Sprague-Dawley rats, 72-hour intravenous infusion at 10 mg/kg/day, time 96 h, 10 mg/kg/day
  Plasma concentration, individual animal: 60.2 ng/mL and 45.0 ng/mL
[1]; male Sprague-Dawley rats, 72-hour intravenous infusion at 30 mg/kg/day, time 24 h, 30 mg/kg/day
  Plasma concentration, individual animal: 1855.0 ng/mL and 2482.4 ng/mL
[1]; male Sprague-Dawley rats, 72-hour intravenous infusion at 30 mg/kg/day, time 48 h, 30 mg/kg/day
  Plasma concentration, individual animal: 2175.6 ng/mL and 2510.8 ng/mL
[1]; male Sprague-Dawley rats, 72-hour intravenous infusion at 30 mg/kg/day, time 72 h, 30 mg/kg/day
  Plasma concentration, individual animal: 1871.2 ng/mL and 2031.5 ng/mL
[1]; male Sprague-Dawley rats, 72-hour intravenous infusion at 30 mg/kg/day, time 78 h, 30 mg/kg/day
  Plasma concentration, individual animal: 690.2 ng/mL and 818.5 ng/mL
[1]; male Sprague-Dawley rats, 72-hour intravenous infusion at 30 mg/kg/day, time 84 h, 30 mg/kg/day
  Plasma concentration, individual animal: 273.1 ng/mL and 309.1 ng/mL
[1]; male Sprague-Dawley rats, 72-hour intravenous infusion at 30 mg/kg/day, time 96 h, 30 mg/kg/day
  Plasma concentration, individual animal: 164.1 ng/mL and 213.1 ng/mL
[1]; male Sprague-Dawley rats, 72-hour intravenous infusion at 100 mg/kg, time 24 h, 100 mg/kg
  Plasma concentration, individual animal: 7597.9 ng/mL and 10702.8 ng/mL
[1]; male Sprague-Dawley rats, 72-hour intravenous infusion at 100 mg/kg, time 48 h, 100 mg/kg
  Plasma concentration, individual animal: 6182.8 ng/mL and 7504.3 ng/mL
[1]; male Sprague-Dawley rats, 72-hour intravenous infusion at 100 mg/kg, time 72 h, 100 mg/kg
  Plasma concentration, individual animal: 7768.2 ng/mL
[1]; male Sprague-Dawley rats, 72-hour intravenous infusion at 100 mg/kg, time 78 h, 100 mg/kg
  Plasma concentration, individual animal: 1893.5 ng/mL and 2808.6 ng/mL
[1]; male Sprague-Dawley rats, 72-hour intravenous infusion at 100 mg/kg, time 84 h, 100 mg/kg
  Plasma concentration, individual animal: 1818.2 ng/mL
[1]; male Sprague-Dawley rats, 72-hour intravenous infusion at 100 mg/kg, time 96 h, 100 mg/kg
  Plasma concentration, individual animal: 333.5 ng/mL and 482.1 ng/mL
[1]; male, 10 mg/kg/day, male Sprague-Dawley rats, 72-hour intravenous infusion at 10 mg/kg/day, time 24 h, read-out: Plasma concentration, Mean
  concentration at 24 h: 803 ng/mL
[1]; male, 10 mg/kg/day, male Sprague-Dawley rats, 72-hour intravenous infusion at 10 mg/kg/day, time 24 h, read-out: Plasma concentration, individual animal
  concentration at 24 h: 908 ng/mL
[1]; male, 10 mg/kg/day, male Sprague-Dawley rats, 72-hour intravenous infusion at 10 mg/kg/day, time 48 h, read-out: Plasma concentration, Mean
  concentration at 48 h: 602 ng/mL
[1]; male, 10 mg/kg/day, male Sprague-Dawley rats, 72-hour intravenous infusion at 10 mg/kg/day, time 48 h, read-out: Plasma concentration, individual animal
  concentration at 48 h: 515 ng/mL
[1]; male, 10 mg/kg/day, male Sprague-Dawley rats, 72-hour intravenous infusion at 10 mg/kg/day, time 72 h, read-out: Plasma concentration, Mean
  concentration at 72 h: 594 ng/mL
[1]; male, 10 mg/kg/day, male Sprague-Dawley rats, 72-hour intravenous infusion at 10 mg/kg/day, time 72 h, read-out: Plasma concentration, individual animal
  concentration at 72 h: 618 ng/mL
[1]; male, 10 mg/kg/day, male Sprague-Dawley rats, 72-hour intravenous infusion at 10 mg/kg/day, time 78 h, read-out: Plasma concentration, Mean
  concentration at 78 h: 208 ng/mL
[1]; male, 10 mg/kg/day, male Sprague-Dawley rats, 72-hour intravenous infusion at 10 mg/kg/day, time 78 h, read-out: Plasma concentration, individual animal
  concentration at 78 h: 249 ng/mL
[1]; male, 10 mg/kg/day, male Sprague-Dawley rats, 72-hour intravenous infusion at 10 mg/kg/day, time 84 h, read-out: Plasma concentration, Mean
  concentration at 84 h: 98.9 ng/mL
[1]; male, 10 mg/kg/day, male Sprague-Dawley rats, 72-hour intravenous infusion at 10 mg/kg/day, time 84 h, read-out: Plasma concentration, individual animal
  concentration at 84 h: 86 ng/mL
[1]; male, 10 mg/kg/day, male Sprague-Dawley rats, 72-hour intravenous infusion at 10 mg/kg/day, time 96 h, read-out: Plasma concentration, Mean
  concentration at 96 h: 55.1 ng/mL
[1]; male, 10 mg/kg/day, male Sprague-Dawley rats, 72-hour intravenous infusion at 10 mg/kg/day, time 96 h, read-out: Plasma concentration, individual animal
  concentration at 96 h: 60 ng/mL
[1]; male, 30 mg/kg/day, male Sprague-Dawley rats, 72-hour intravenous infusion at 30 mg/kg/day, time 24 h, read-out: Plasma concentration, Mean
  concentration at 24 h: 1950 ng/mL
[1]; male, 30 mg/kg/day, male Sprague-Dawley rats, 72-hour intravenous infusion at 30 mg/kg/day, time 24 h, read-out: Plasma concentration, individual animal
  concentration at 24 h: 1520 ng/mL
[1]; male, 30 mg/kg/day, male Sprague-Dawley rats, 72-hour intravenous infusion at 30 mg/kg/day, time 48 h, read-out: Plasma concentration, Mean
  concentration at 48 h: 2500 ng/mL
[1]; male, 30 mg/kg/day, male Sprague-Dawley rats, 72-hour intravenous infusion at 30 mg/kg/day, time 48 h, read-out: Plasma concentration, individual animal
  concentration at 48 h: 2800 ng/mL
[1]; male, 30 mg/kg/day, male Sprague-Dawley rats, 72-hour intravenous infusion at 30 mg/kg/day, time 72 h, read-out: Plasma concentration, Mean
  concentration at 72 h: 1670 ng/mL
[1]; male, 30 mg/kg/day, male Sprague-Dawley rats, 72-hour intravenous infusion at 30 mg/kg/day, time 72 h, read-out: Plasma concentration, individual animal
  concentration at 72 h: 1110 ng/mL
[1]; male, 30 mg/kg/day, male Sprague-Dawley rats, 72-hour intravenous infusion at 30 mg/kg/day, time 78 h, read-out: Plasma concentration, Mean
  concentration at 78 h: 736 ng/mL
[1]; male, 30 mg/kg/day, male Sprague-Dawley rats, 72-hour intravenous infusion at 30 mg/kg/day, time 78 h, read-out: Plasma concentration, individual animal
  concentration at 78 h: 698 ng/mL
[1]; male, 30 mg/kg/day, male Sprague-Dawley rats, 72-hour intravenous infusion at 30 mg/kg/day, time 84 h, read-out: Plasma concentration, Mean
  concentration at 84 h: 290 ng/mL
[1]; male, 30 mg/kg/day, male Sprague-Dawley rats, 72-hour intravenous infusion at 30 mg/kg/day, time 84 h, read-out: Plasma concentration, individual animal
  concentration at 84 h: 289 ng/mL
[1]; male, 30 mg/kg/day, male Sprague-Dawley rats, 72-hour intravenous infusion at 30 mg/kg/day, time 96 h, read-out: Plasma concentration, Mean
  concentration at 96 h: 172 ng/mL
[1]; male, 30 mg/kg/day, male Sprague-Dawley rats, 72-hour intravenous infusion at 30 mg/kg/day, time 96 h, read-out: Plasma concentration, individual animal
  concentration at 96 h: 139 ng/mL
[1]; male, 100 mg/kg, male Sprague-Dawley rats, 72-hour intravenous infusion at 100 mg/kg, time 24 h, read-out: Plasma concentration, Mean
  concentration at 24 h: 9550 ng/mL
[1]; male, 100 mg/kg, male Sprague-Dawley rats, 72-hour intravenous infusion at 100 mg/kg, time 24 h, read-out: Plasma concentration, individual animal
  concentration at 24 h: 10300 ng/mL
[1]; male, 100 mg/kg, male Sprague-Dawley rats, 72-hour intravenous infusion at 100 mg/kg, time 48 h, read-out: Plasma concentration, Mean
  concentration at 48 h: 7030 ng/mL
[1]; male, 100 mg/kg, male Sprague-Dawley rats, 72-hour intravenous infusion at 100 mg/kg, time 48 h, read-out: Plasma concentration, individual animal
  concentration at 48 h: 7400 ng/mL
[1]; male, 100 mg/kg, male Sprague-Dawley rats, 72-hour intravenous infusion at 100 mg/kg, time 72 h, read-out: Plasma concentration, Mean
  concentration at 72 h: 9790 ng/mL
[1]; male, 100 mg/kg, male Sprague-Dawley rats, 72-hour intravenous infusion at 100 mg/kg, time 72 h, read-out: Plasma concentration, individual animal
  concentration at 72 h: 11800 ng/mL
[1]; male, 100 mg/kg, male Sprague-Dawley rats, 72-hour intravenous infusion at 100 mg/kg, time 78 h, read-out: Plasma concentration, Mean
  concentration at 78 h: 2640 ng/mL
[1]; male, 100 mg/kg, male Sprague-Dawley rats, 72-hour intravenous infusion at 100 mg/kg, time 78 h, read-out: Plasma concentration, individual animal
  concentration at 78 h: 3220 ng/mL
[1]; male, 100 mg/kg, male Sprague-Dawley rats, 72-hour intravenous infusion at 100 mg/kg, time 84 h, read-out: Plasma concentration, Mean
  concentration at 84 h: 2230 ng/mL
[1]; male, 100 mg/kg, male Sprague-Dawley rats, 72-hour intravenous infusion at 100 mg/kg, time 84 h, read-out: Plasma concentration, individual animal
  concentration at 84 h: 2650 ng/mL
[1]; male, 100 mg/kg, male Sprague-Dawley rats, 72-hour intravenous infusion at 100 mg/kg, time 96 h, read-out: Plasma concentration, Mean
  concentration at 96 h: 471 ng/mL
[1]; male, 100 mg/kg, male Sprague-Dawley rats, 72-hour intravenous infusion at 100 mg/kg, time 96 h, read-out: Plasma concentration, individual animal
  concentration at 96 h: 598 ng/mL
[1]; rats, continuous intravenous infusion
  Time for plasma PPTN concentrations to reach steady state: ≤ 24 h
[1]; rats, continuous intravenous infusion 10, 30, 100 mg/kg/day
  Plasma PPTN concentrations, relation to dose: linearly dose-related
[2]
  % recovery vs. standard: 26%

From patent publication US20220202799A1, “PHARMACEUTICAL FORMULATIONS CONTAINING P2Y14 ANTAGONISTS” (priority 2019, published 2022)
